Measured values from ChEMBL document CHEMBL3046898, “Synthesis and characterization of flurbiprofen hydrazide derivatives as potential anti-HCV, anticancer and antimicrobial agents” (2013).
Calls of active or inactive are those of the source. The rule behind the calls is not given here.

Columns and labels:
A498 = assay: Cytotoxicity against human A498 assessed as cell growth at 10 uM after 48 hrs by SRB assay; format: functional; settings: A498, 48 h, read-out: Activity
Staphylococcus cohnii [1] = assay: Antibacterial activity against Staphylococcus cohnii at 6.25 to 200 ug/ml after 24 hrs by microwell dilution assay; format: functional, organism-based
SK-MEL-28 = assay: Cytotoxicity against human SK-MEL-28 assessed as cell growth at 10 uM after 48 hrs by SRB assay; format: functional; settings: SK-MEL-28, 48 h, read-out: Activity
M14 = assay: Cytotoxicity against human M14 assessed as cell growth at 10 uM after 48 hrs by SRB assay; format: functional; settings: M14, 48 h, read-out: Activity
K562 = assay: Cytotoxicity against human K562 assessed as cell growth at 10 uM after 48 hrs by SRB assay; format: functional; settings: K562, 48 h, read-out: Activity
Staphylococcus cohnii [2] = assay: Antibacterial activity against Staphylococcus cohnii at 10 mg/ml after 24 hrs by disc diffusion method; format: functional
NCI-H23 = assay: Cytotoxicity against human NCI-H23 assessed as cell growth at 10 uM after 48 hrs by SRB assay; format: functional; settings: NCI-H23, 48 h, read-out: Activity

Question: With CC(C(=O)NN1C(=O)CSC1c1ccc(C(F)(F)F)cc1)c1ccc(-c2ccccc2)c(F)c1 (configuration not stated) as the molecule, how does the growth at 10 µM (A498) read?
Answer: 56.8%

Question: What about the Activity (Staphylococcus cohnii [1]) of the same molecule?
Answer: inactive

Question: And the growth at 10 µM (SK-MEL-28)?
Answer: 99.9%

Question: And the growth at 10 µM (M14)?
Answer: 54.5%

Question: What about the growth at 10 µM (K562) of the same molecule?
Answer: 39.5%

Question: What about the Activity (Staphylococcus cohnii [2]) of the same molecule?
Answer: inactive

Question: And the growth at 10 µM (NCI-H23)?
Answer: 90.4%
